Here are results for six compounds from US20250161408A1, “PEPTIDIC INHIBITORS OF AMYLOID SELF- AND CROSS-ASSEMBLY” (TECHNISCHE UNIVERSITÄT MÜNCHEN, priority 2022, published 2025).

Entries after “also recorded” stand apart in the source; their conditions may differ. Non-standard residues stand in square brackets, D forms with d. Residues, ends and D or L forms follow the SMILES beside them. No end group written: not given here. NMeF = CN[C@@H](Cc1ccccc1)C(=O)O; NMeL = CN[C@@H](CC(C)C)C(=O)O; NMeV = CN[C@H](C(=O)O)C(C)C; Nle = CCCC[C@H](N)C(=O)O

In one series the target is T1, IAPP (Homo sapiens, UniProt P10997).
T1 construct: made in house; host or cells: chemical synthesis (Fmoc-SPPS), air-oxidised, RP-HPLC purified
T1 sequence (P10997 34-70 limits assumed): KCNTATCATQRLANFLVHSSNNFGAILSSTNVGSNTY
The series is described as follows: MTT reduction assay of IAPP-mediated cell damage in RIN5fm cells. The following applies: for Effect on formation of cytotoxic IAPP assemblies (MTT reduction): aged (24 h or 7 days) IAPP/peptide 1/2 solutions; for IC50: read-out: IC50 (±SD) of inhibitory effects of ACMs on IAPP-mediated cell damage. The class given is cell-based. As for the experimental part: Briefly, cells were cultivated and platted in 96-well plates. Aliquots of solutions used for the ThT binding assays (see “ThT binding assays”) were diluted with cell medium at the indicated incubation time points (24 h or 7 days) and added to the cells at the indicated final concentrations. Following incubation with the cells for ˜20 h (37° C., humidified atmosphere, 5% CO2) cell damage was assessed by measuring cellular MTI reduction. IC50 values were determined.
Background: Tetrazolium dyes change colour on reduction, which living cells bring about.

The target in series [1] is T2, Aβ42 (Homo sapiens, UniProt P05067).
T2 construct: the 40(42)-residue peptide Aβ40(42); made in house; host or cells: chemical synthesis (Fmoc-SPPS), monomer isolated by SEC
The series is described as follows: cell-based. The following applies: read-out: IC50 (±SD) of inhibitory effects of ACMs on Aβ42-mediated cell damage. As for the experimental part: Following incubation with the cells for ˜20 h (37° C., humidified atmosphere, 5% CO2), cell damage was assessed by measuring cellular MTT reduction.
Solutions were aged for 1.5 h (37° C., shaking 500 rpm). Aliquots were diluted with cell medium, incubated with PC12 cells at the indicated final concentrations for ˜20 h and cellular MTT reduction was measured as above.

Series [2] has as its system Aβ42-mediated LTP impairment. In words: Hippocampal long-term potentiation (LTP) measurements in murine hippocampal slices ex vivo. The following applies: Aβ42 oligomers 50 nM, 24 h aged, 30° C.; oligomers/ACM 1/10. Set-up: species or system mouse. As for the experimental part:
LTP measurements were performed. Briefly, sagittal hippocampal slices (350 μm) were obtained from C57BL/6N male mice (6-8 weeks) in ice-cold Ringer solution bubbled with a mixture of 95% O2 and 5% CO2 and according to protocols approved by the ethical committee on animal care and use of the government of Bavaria Germany. Extracellular recordings were performed using artificial cerebrospinal fluid (ACSF)-filled glass microelectrodes (2-3 MW) at RT. […] Field excitatory postsynaptic potentials (fEPSPs) were evoked in the hippocampal CA1 dendritic region via two independent inputs by stimulating the Schaffer collateral commissural pathway (Scep). For LTP induction, high-frequency stimulation (HFS; 100 Hz/100 pulses) conditioning pulses were delivered to the same Seep inputs. Both stimulating electrodes were used to utilize the input specificity of LTP, thus allowing for the measurement of an internal control within the same slice. […] Responses were measured for 60 min after HFS. […] Data analysis by 1-way ANOVA and Bonferroni's multiple comparison test.

Series [3] deals with cultured murine BV2 microglia. In words: Phagocytosis of Aβ42 species with or without ACM. The class given is cell-based, mouse. The following applies: 1/1, co-incubation 2 h. As to the method: Briefly, BV2 cells were maintained in GlutaMAX-supplemented RPMI1640 medium containing 10% FBS and 1% penicillin/streptomycin on poly-L-ornithine-coated flasks. For the phagocytosis assay, BV2 cells were seeded into 24-well plates containing coverslips in serum-free RPMI1640-GlutaMAX and further incubated for 24 h (5% CO2, 37° C.) to reach 10000 cells/well. Primary BMDMs were obtained from bone-marrow monocytes isolated from wildtype C57BL/6 mice, plated in 24-well plates at a density of 10000cells/well, and differentiated with L929 cell-conditioned medium (RPMI1640, 10% FBS, 1% penicillin/streptomycin) for 7 days. Thereafter, cells were incubated with aged peptide solutions at 37° C. for 6 h. […]
Following incubation of the cells with the peptides, supernatants were removed and cells on the coverslips were washed 5 times with ice-cold 1×PBS, fixed with 4% paraformaldehyde, washed with 1×PBS, permeabilized with 0.2% Triton-X 100, and rinsed three times with cold 1×PBS. […] Images were acquired using a Leica DMi8 fluorescence microscope. The percentage of cells that had taken up peptides was calculated by dividing the number of BV2 cells or BMDMs that phagocytosed TAMRA-labeled peptide by the total cell count, multiplied by 100. Significance was analyzed by unpaired student's t-test.

The target in series [4] is T2, Aβ42. The series is described as follows: ThT binding assay of Aβ42 fibrillogenesis (self-assembly, seeding, cross-seeding). Particulars: Aβ42 5 μM, Aβ42/peptide 1/1. The format is biochemical. As for the experimental part:
Aβ42 fibrillogenesis-related studies. […] Peptide incubations were performed in the presence of ThT in 96-well black MTPs (FluoroNunc, Thermo Fisher Scientific). […] Values of seeds or buffer alone were subtracted from the data in self-/cross-seeding assays; all other data shown are raw data except for data in FIG. 27b which were normalized).
Incubations (37° C.) and determination of ThT fluorescence were performed as for all other Aβ42-related studies.

As a reminder, the IC50 is the concentration that inhibits the measured activity by half. `CCCC[C@H](NC(=O)[C@H](CC(C)C)NC(=O)CNC(=O)[C@@H](NC(=O)[C@@H](NC(=O)[C@H](C)NC(=O)CNC(=O)[C@H](CCCCN)NC(=O)[C@H](CC(N)=O)NC(=O)[C@H](Cc1ccccc1)NC(=O)[C@H](Cc1ccccc1)NC(=O)[C@H](Cc1ccccc1)NC(=O)[C@H](CC(=O)O)NC(=O)[C@H](CCC(=O)O)NC(=O)[C@H](C)NC(=O)[C@H](Cc1ccccc1)NC(=O)[C@H](Cc1ccccc1)N(C)C(=O)[C@@H](NC(=O)[C@H](CC(C)C)N(C)C(=O)[C@H](CCCCN)NC(=O)[C@@H](N)CCC(N)=O)C(C)C)[C@@H](C)CC)[C@@H](C)CC)C(=O)N[C@H](C(=O)NCC(=O)NCC(=O)N[C@H](C(=O)N[C@H](C(=O)O)C(C)C)C(C)C)C(C)C` [F3-LF] (H-QK[NMeL]V[NMeF]FAEDFFFNKGAIIGL[Nle]VGGVV-OH): at IAPP (RIN5fm cells), the “Effect on formation of cytotoxic IAPP assemblies (MTT reduction)” value (“Effect on formation … (MTT reduction)” for short) is listed as “fully suppressed; also recorded: suppress formation of toxic IAPP assemblies”. Further, the figures for the IC50 on IAPP and on Aβ42 [1] were 41.7 nM and 262 nM, respectively. In addition, the “Effect on LTP impairment mediated by preformed Aβ42 oligomers” value in series [2] is on record as “suppress LTP impairment mediated by preformed Aβ42 oligomers”.

Consider `CCCC[C@H](NC(=O)[C@H](CC(C)C)NC(=O)CNC(=O)[C@@H](NC(=O)[C@@H](NC(=O)[C@H](C)NC(=O)CNC(=O)[C@H](CCCCN)NC(=O)[C@H](CC(N)=O)NC(=O)[C@H](Cc1ccccc1)NC(=O)[C@H](Cc1ccccc1)NC(=O)[C@H](Cc1ccccc1)NC(=O)[C@H](CC(=O)O)NC(=O)[C@H](CCC(=O)O)NC(=O)[C@H](C)NC(=O)[C@H](Cc1ccccc1)N(C)C(=O)[C@H](Cc1ccccc1)NC(=O)[C@H](C(C)C)N(C)C(=O)[C@H](CC(C)C)NC(=O)[C@H](CCCCN)NC(=O)[C@@H](N)CCC(N)=O)[C@@H](C)CC)[C@@H](C)CC)C(=O)N[C@H](C(=O)NCC(=O)NCC(=O)N[C@H](C(=O)N[C@H](C(=O)O)C(C)C)C(C)C)C(C)C` [F3-VF] (H-QKL[NMeV]F[NMeF]AEDFFFNKGAIIGL[Nle]VGGVV-OH), for which, on IAPP (RIN5fm cells, ACM 33 μM added to fIAPP […], 1 day, fIAPP 500 nM), the “Effect of addition to preformed fIAPP on fIAPP cytotoxicity (MTT reduction)” value is on record as “does not affect fIAPP cytotoxicity”. Moreover, the “Effect on formation … (MTT reduction)” value on IAPP (RIN5fm cells) was “fully suppressed; also recorded: suppress formation of toxic IAPP assemblies”. For the same compound, the IC50 was 78.5 nM at IAPP and 1030 nM at Aβ42 [1].

Turning to `CCCC[C@H](NC(=O)[C@H](CC(C)C)NC(=O)CNC(=O)[C@@H](NC(=O)[C@@H](NC(=O)[C@H](C)NC(=O)CNC(=O)[C@H](CCCCN)NC(=O)[C@H](CC(N)=O)NC(=O)[C@H](CC(C)C)NC(=O)[C@H](CC(C)C)NC(=O)[C@H](CC(C)C)NC(=O)[C@H](CC(=O)O)NC(=O)[C@H](CCC(=O)O)NC(=O)[C@H](C)NC(=O)[C@H](Cc1ccccc1)NC(=O)[C@H](Cc1ccccc1)N(C)C(=O)[C@@H](NC(=O)[C@H](CC(C)C)N(C)C(=O)[C@H](CCCCN)NC(=O)[C@@H](N)CCC(N)=O)C(C)C)[C@@H](C)CC)[C@@H](C)CC)C(=O)N[C@H](C(=O)NCC(=O)NCC(=O)N[C@H](C(=O)N[C@H](C(=O)O)C(C)C)C(C)C)C(C)C` [L3-LF] (H-QK[NMeL]V[NMeF]FAEDLLLNKGAIIGL[Nle]VGGVV-OH), the “Effect on formation … (MTT reduction)” value at IAPP (RIN5fm cells) is reported as “fully suppressed; also recorded: suppress formation of toxic IAPP assemblies”. Also, the IC50 at IAPP was found to be 133 nM.

In the case of `CCCC[C@H](NC(=O)[C@H](CC(C)C)NC(=O)CNC(=O)[C@@H](NC(=O)[C@@H](NC(=O)[C@H](C)NC(=O)CNC(=O)[C@H](CCCCN)NC(=O)[C@H](CC(N)=O)NC(=O)[C@H](CC(C)C)NC(=O)[C@H](CC(C)C)NC(=O)[C@H](CC(C)C)NC(=O)[C@H](CC(=O)O)NC(=O)[C@H](CCC(=O)O)NC(=O)[C@H](C)NC(=O)[C@H](Cc1ccccc1)N(C)C(=O)[C@H](Cc1ccccc1)NC(=O)[C@H](C(C)C)N(C)C(=O)[C@H](CC(C)C)NC(=O)[C@H](CCCCN)NC(=O)[C@@H](N)CCC(N)=O)[C@@H](C)CC)[C@@H](C)CC)C(=O)N[C@H](C(=O)NCC(=O)NCC(=O)N[C@H](C(=O)N[C@H](C(=O)O)C(C)C)C(C)C)C(C)C` [L3-VF] (H-QKL[NMeV]F[NMeF]AEDLLLNKGAIIGL[Nle]VGGVV-OH), at IAPP (RIN5fm cells), the “Effect on formation … (MTT reduction)” value is given as “fully suppressed; also recorded: suppress formation of toxic IAPP assemblies”. In addition, the IC50 on IAPP was 113 nM; on Aβ42 [1] it was 261 nM. Also, in series [2], the “Effect on LTP impairment mediated by preformed Aβ42 oligomers” value is recorded as “suppress LTP impairment mediated by preformed Aβ42 oligomers”. The “Effect of addition to TAMRA-oAβ42 on Aβ42 phagocytosis” value in series [3] is recorded as “increased Aβ42 phagocytosis”.

In the case of `CCCC[C@H](NC(=O)[C@H](CC(=O)O)NC(=O)[C@H](CCC(=O)O)NC(=O)[C@H](C)NC(=O)[C@H](Cc1ccccc1)NC(=O)[C@H](Cc1ccccc1)N(C)C(=O)[C@@H](NC(=O)[C@H](CC(C)C)N(C)C(=O)[C@H](CCCCN)NC(=O)[C@@H](N)CCC(N)=O)C(C)C)C(=O)N[C@@H](CCCC)C(=O)N[C@@H](CCCC)C(=O)N[C@@H](CC(N)=O)C(=O)N[C@@H](CCCCN)C(=O)NCC(=O)N[C@@H](C)C(=O)N[C@H](C(=O)N[C@H](C(=O)NCC(=O)N[C@@H](CC(C)C)C(=O)N[C@@H](CCCC)C(=O)N[C@H](C(=O)NCC(=O)NCC(=O)N[C@H](C(=O)N[C@H](C(=O)O)C(C)C)C(C)C)C(C)C)[C@@H](C)CC)[C@@H](C)CC` [Nle3-LF] (H-QK[NMeL]V[NMeF]FAED[Nle][Nle][Nle]NKGAIIGL[Nle]VGGVV-OH), the “Effect on formation … (MTT reduction)” value at IAPP (RIN5fm cells) is “fully suppressed; also recorded: suppress formation of toxic IAPP assemblies”. At IAPP, the IC50 is 82.1 nM.

“Nle3-LVFF: 4-fold N-methylated Nle3-VF analog; N-methylation of all four residues of segment LVFF (QK[NMeL][NMeV][NMeF][NMeF]AED[Nle][Nle][Nle]NKGAIIGL[Nle]VGGVV)”: in the series with Aβ42 [4], the “Effect on Aβ42 fibrillogenesis / amyloid self-assembly (ThT binding)” value was “blocks amyloid self-assembly of Aβ42”.
